Common to all, as to assay: CXCR6 receptor antagonists, dose response, cell-based, beta-arrestin, DiscoveRx, APJ panel, uHTS hits (AID 624129)
The target in assay [1] is Apelin receptor (Homo sapiens) (UniProt P35414). The settings on record: CXCR6 beta-arrestin (DiscoveRx) antagonist cell assay, APJ.
Assay [2] has as its target Beta-galactosidase (Escherichia coli) (UniProt Q8VNN2). Conditions: CXCR6 beta-arrestin (DiscoveRx) antagonist cell assay, b-galactosidase.
The target in assay [3] is C-C chemokine receptor type 6 (Homo sapiens) (UniProt P51684). The settings on record: CXCR6 beta-arrestin (DiscoveRx) antagonist cell assay.
Assay [4] addresses C-X-C chemokine receptor type 6 (Homo sapiens) (UniProt O00574). Conditions: CXCR6 beta-arrestin (DiscoveRx) antagonist cell assay.
The mark [5] stands for this setting: dose range 1, mean IC50 across replicates.
Where [6] appears, read: CCR6, dose range 1, mean IC50 across replicates.
The mark [7] stands for this setting: CXCR6, dose range 1, mean IC50 across replicates.

Calls of active or inactive are those of the source. The rule behind the calls is not given here.

The term IC50 denotes the point on the concentration scale where inhibition reaches its midpoint. The inhibition is the relative decrease from the control value, in per cent.

C-X-C chemokine receptor type 6 (Homo sapiens), sequence (O00574 whole entry, looked up): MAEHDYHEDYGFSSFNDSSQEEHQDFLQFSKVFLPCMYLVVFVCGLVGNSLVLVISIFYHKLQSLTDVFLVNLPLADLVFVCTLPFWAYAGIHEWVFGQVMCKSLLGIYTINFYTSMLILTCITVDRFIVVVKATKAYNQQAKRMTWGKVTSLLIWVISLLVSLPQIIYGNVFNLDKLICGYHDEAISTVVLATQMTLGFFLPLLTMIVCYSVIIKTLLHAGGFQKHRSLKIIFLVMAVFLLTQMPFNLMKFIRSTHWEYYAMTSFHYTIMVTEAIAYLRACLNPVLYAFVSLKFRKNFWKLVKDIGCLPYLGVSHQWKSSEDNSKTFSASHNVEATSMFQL
Beta-galactosidase (Escherichia coli), sequence (Q8VNN2 whole entry, looked up): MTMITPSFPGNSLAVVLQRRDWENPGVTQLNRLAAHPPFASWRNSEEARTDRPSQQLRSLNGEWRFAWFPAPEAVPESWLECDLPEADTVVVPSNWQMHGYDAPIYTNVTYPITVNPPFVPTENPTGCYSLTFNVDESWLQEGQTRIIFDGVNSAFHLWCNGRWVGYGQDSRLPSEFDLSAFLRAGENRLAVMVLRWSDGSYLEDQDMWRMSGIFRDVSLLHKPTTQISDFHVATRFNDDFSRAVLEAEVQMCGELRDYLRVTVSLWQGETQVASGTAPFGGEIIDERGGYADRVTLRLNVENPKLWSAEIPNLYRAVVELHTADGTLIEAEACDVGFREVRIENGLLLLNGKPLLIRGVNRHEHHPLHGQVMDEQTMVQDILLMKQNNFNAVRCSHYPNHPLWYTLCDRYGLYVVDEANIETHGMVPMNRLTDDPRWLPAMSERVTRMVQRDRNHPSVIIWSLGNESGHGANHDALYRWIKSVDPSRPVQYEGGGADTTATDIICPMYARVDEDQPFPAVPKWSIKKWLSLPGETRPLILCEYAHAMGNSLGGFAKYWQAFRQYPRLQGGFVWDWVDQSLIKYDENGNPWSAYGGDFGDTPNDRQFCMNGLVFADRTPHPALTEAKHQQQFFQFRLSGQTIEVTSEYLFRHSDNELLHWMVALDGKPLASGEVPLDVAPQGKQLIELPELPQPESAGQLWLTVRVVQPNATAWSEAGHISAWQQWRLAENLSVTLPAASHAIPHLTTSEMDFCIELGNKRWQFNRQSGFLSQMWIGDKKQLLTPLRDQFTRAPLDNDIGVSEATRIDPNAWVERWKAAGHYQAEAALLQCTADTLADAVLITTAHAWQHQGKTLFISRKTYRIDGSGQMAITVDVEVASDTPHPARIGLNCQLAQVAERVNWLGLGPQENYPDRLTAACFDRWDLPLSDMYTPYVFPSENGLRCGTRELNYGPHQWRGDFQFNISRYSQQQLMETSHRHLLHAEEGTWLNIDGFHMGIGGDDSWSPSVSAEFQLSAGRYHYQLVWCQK

Take `COc1ccc(OC)c(NC(=O)c2nc(S(=O)(=O)Cc3ccccc3)ncc2Cl)c1`: the half-maximal inhibitory concentration (IC50) in assay [1] (dose range 1) was 13.7 µM; in assay [1] (setting [5]), 12.6 µM; in assay [1] (run 2, dose range 1), 11.4 µM; in assay [1] (run 3, dose range 1), above 80 µM; in assay [2] (dose range 1) it was > 80 µM (inactive); in assay [2] (setting [5]), above 80 µM. Moreover, the IC50 was 7.57 µM in assay [3] (CCR6, dose range 1); 7.24 µM in assay [3] (setting [6]); 6.9 µM in assay [3] (CCR6, run 2, dose range 1); 7.68 µM in assay [4] (CXCR6, dose range 1); 8.6 µM in assay [4] (setting [7]); 8.96 µM in assay [4] (CXCR6, run 1, dose range 2). For the same compound, the IC50 in assay [4] (CXCR6, run 2, dose range 1) is 8.78 µM; in assay [4] (CXCR6, run 2, dose range 2) it was 8.98 µM.
For the compound `O=C(NNC(=O)C12CC3CC(CC(C3)C1)C2)c1ccccn1`, the IC50 is 10.3 µM in assay [1] (dose range 1); 9.16 µM in assay [1] (setting [5]); 8.53 µM in assay [1] (run 2, dose range 1); 8.62 µM in assay [1] (run 3, dose range 1); > 80 µM (inactive) in assay [2] (dose range 1); above 80 µM in assay [2] (setting [5]). Also, the IC50 is 8.92 µM in assay [3] (CCR6, dose range 1); 8.58 µM in assay [3] (setting [6]); 8.23 µM in assay [3] (CCR6, run 2, dose range 1); 18.7 µM in assay [4] (CXCR6, dose range 1); 10.9 µM in assay [4] (setting [7]); 5.57 µM in assay [4] (CXCR6, run 1, dose range 2). Besides, the IC50 in assay [4] (CXCR6, run 2, dose range 1) was 8.52 µM; in assay [4] (CXCR6, run 2, dose range 2), 10.9 µM.
As for `CN(C)S(=O)(=O)c1cccc(NC(=O)CSc2cccc3cccnc23)c1`, the IC50 in assay [1] (dose range 1) was 47.9 µM; in assay [1] (setting [5]) it was 48.1 µM; in assay [1] (run 2, dose range 1) it was 47.7 µM; in assay [1] (run 3, dose range 1) it was 48.7 µM; in assay [2] (dose range 1), > 80 µM (inactive); in assay [2] (setting [5]), above 80 µM. Also, the IC50 was 37.3 µM in assay [3] (CCR6, dose range 1); 34.1 µM in assay [3] (setting [6]); 30.8 µM in assay [3] (CCR6, run 2, dose range 1); 30.8 µM in assay [4] (setting [7]); 27.2 µM in assay [4] (CXCR6, run 2, dose range 1). In assay [4] (CXCR6, dose range 1), the IC50 entry was “inactive”. The inhibition in assay [4] (CXCR6, run 1, dose range 2, at 80 µM (top of the series)) was 123%.
Regarding `CCS(=O)(=O)c1ncc(Cl)c(C(=O)Nc2ccc(S(=O)(=O)N(C)c3ccccc3)cc2)n1`, the IC50 in assay [1] (dose range 1) was 5.02 µM; in assay [1] (setting [5]) it was 5.55 µM; in assay [1] (run 2, dose range 1) it was 5.84 µM; in assay [1] (run 3, dose range 1), 5.8 µM; in assay [2] (dose range 1), > 80 µM (inactive); in assay [2] (setting [5]), above 80 µM. The IC50 in assay [3] (CCR6, dose range 1) was 4.87 µM; in assay [3] (setting [6]), 4.8 µM; in assay [3] (CCR6, run 2, dose range 1), 4.74 µM; in assay [4] (CXCR6, dose range 1) it was 6.29 µM; in assay [4] (setting [7]), 6.61 µM; in assay [4] (CXCR6, run 1, dose range 2) it was 6.87 µM. Also, the IC50 worked out at 6.54 µM in assay [4] (CXCR6, run 2, dose range 1) and 6.76 µM in assay [4] (CXCR6, run 2, dose range 2).
On to `C/C(=N\NC(=O)COc1ccccc1-c1ccccc1)c1ccccn1`, for which the IC50 in assay [1] (dose range 1) is 2.32 µM; in assay [1] (setting [5]), 2.46 µM; in assay [1] (run 2, dose range 1) it was 2.59 µM; in assay [1] (run 3, dose range 1), above 80 µM; in assay [2] (dose range 1) it was > 80 µM (inactive); in assay [2] (setting [5]), above 80 µM. The IC50 in assay [3] (CCR6, dose range 1) was 2.07 µM; in assay [3] (setting [6]) it was 2.25 µM; in assay [3] (CCR6, run 2, dose range 1), 2.44 µM; in assay [4] (CXCR6, dose range 1), 2.76 µM; in assay [4] (setting [7]) it was 2.31 µM; in assay [4] (CXCR6, run 1, dose range 2) it was 2.01 µM. The concentration for half-maximal inhibition (IC50) in assay [4] (CXCR6, run 2, dose range 1) worked out at 2.94 µM; in assay [4] (CXCR6, run 2, dose range 2) it was 1.51 µM.
For `O=[N+]([O-])c1ccc(Sc2cccc3cccnc23)c([N+](=O)[O-])c1`, the IC50 is 3.05 µM in assay [1] (dose range 1); 3.73 µM in assay [1] (setting [5]); 4.26 µM in assay [1] (run 2, dose range 1); 3.89 µM in assay [1] (run 3, dose range 1); > 80 µM (inactive) in assay [2] (dose range 1); above 80 µM in assay [2] (setting [5]). Besides, the IC50 in assay [3] (CCR6, dose range 1) is 3.32 µM; in assay [3] (setting [6]) it was 4.21 µM; in assay [3] (CCR6, run 2, dose range 1), 5.09 µM; in assay [4] (CXCR6, dose range 1), 5 µM; in assay [4] (setting [7]), 4 µM; in assay [4] (CXCR6, run 1, dose range 2) it was 3.2 µM. The IC50 in assay [4] (CXCR6, run 2, dose range 1) was 4.65 µM; in assay [4] (CXCR6, run 2, dose range 2), 3.15 µM.
Take `CCc1cc2c(=O)[nH]c(-c3ccccn3)nc2s1`: the IC50 in assay [1] (dose range 1) was 1.79 µM; in assay [1] (setting [5]), 2.03 µM; in assay [1] (run 2, dose range 1), 2.16 µM; in assay [1] (run 3, dose range 1), 2.13 µM; in assay [2] (dose range 1), > 80 µM (inactive); in assay [2] (setting [5]), above 80 µM. Further, the IC50 in assay [3] (CCR6, dose range 1) is 1.76 µM; in assay [3] (setting [6]), 2.43 µM; in assay [3] (CCR6, run 2, dose range 1), 3.1 µM; in assay [4] (CXCR6, dose range 1), 2.61 µM; in assay [4] (setting [7]) it was 1.76 µM; in assay [4] (CXCR6, run 1, dose range 2), 1.4 µM. The IC50 in assay [4] (CXCR6, run 2, dose range 1) was found to be 1.74 µM; in assay [4] (CXCR6, run 2, dose range 2) it was 1.28 µM.

The values above are taken from PubChem BioAssay AID624129 (Sanford-Burnham Center for Chemical Genomics, 2012).
